Source: BigSolDB 2.1

CC(C)(C)C(O)(CCc1ccc(Cl)cc1)Cn1cncn1 (stereo not given)
solubility (mole fraction)
Conditions	in 2-butanone	in acetone	in acetonitrile	in ethanol	in ethyl acetate	in isopropanol	in methanol	in n-propanol	in toluene
278.15 K	0.0404	0.0304	0.00516	0.0103	0.0244	0.00877	0.0154	0.00704	0.0217
280.65 K	0.0439	0.0336	0.00585	0.0118	0.027	0.0103	0.0174	0.00825	0.0244
283.15 K	0.0476	0.038	0.00662	0.0136	0.03	0.012	0.0196	0.00953	0.0276
285.65 K	0.0524	0.0416	0.00746	0.0157	0.0336	0.0138	0.0225	0.0112	0.0311
288.15 K	0.0569	0.0461	0.00838	0.0179	0.0377	0.0159	0.0253	0.0133	0.0354
290.65 K	0.0612	0.0507	0.00942	0.0203	0.0421	0.018	0.0284	0.0153	0.0404
293.15 K	0.0659	0.0562	0.0107	0.0234	0.0466	0.0204	0.032	0.0175	0.0453
295.65 K	0.0709	0.0613	0.012	0.0264	0.0512	0.023	0.0359	0.0201	0.0512
298.15 K	0.076	0.0668	0.0134	0.0299	0.0564	0.026	0.04	0.0227	0.0578
300.65 K	0.0815	0.0723	0.0149	0.0333	0.0612	0.0293	0.0444	0.0258	0.0644
303.15 K	0.0869	0.0789	0.0165	0.037	0.0668	0.0328	0.0497	0.0296	0.0712
305.65 K	0.0928	0.0851	0.0186	0.0411	0.0734	0.0367	0.0551	0.0338	0.079
308.15 K	0.0987	0.0925	0.0208	0.0463	0.0797	0.0416	0.06	0.0388	0.0873
310.65 K	0.106	0.101	0.0233	0.0515	0.0867	0.0462	0.0659	0.0444	0.0964
313.15 K	0.113	0.11	0.0261	0.0572	0.0945	0.0519	0.0724	0.0498	0.105
